In patent US20230021483A1, “[…] […] METHOD AND CLASSIFICATION OF PHARMACEUTICAL COMPONENTS BY USING TRANSCRIPTOMES” (National Institutes of Biomedical Innovation, Health and …, priority 2016, published 2023):

Tested on: preferentially upregulated genes in LV, SP, LN
Experiment: Z-score-based differential gene expression analysis (adjuvant group- or adjuvant-associated genes, 40 module mapping, TargetMine annotation)
Assay type: in vivo, C57BL/6 mice
Settings: for Adar 1425405_a_at (Group G1, Modules 20) / Adar 1434268_at (Group G1, Modules 20) / Ddx58 1436562_at (Group G1, Modules 20) / Ddx58 1456890_at (Group G1, Modules 20) / Eif2ak2 1422005_at (Group G1, Modules 20) / G3bp2 1421323_a_at (Group G1, Modules 20) / Gm9706///Isg15 1431591_s_at (Group G1, Modules 20) / H2-T10///H2-T22///H2-T9 1449875_s_at (Group G1, Modules 20) / Ifih1 1426276_at (Group G1, Modules 20) / Ifit1 1450783_at (Group G1, Modules 20) / Ifit3 1449025_at (Group G1, Modules 20) / Irf7 1417244_a_at (Group G1, Modules 20) / Irgm1 1418825_at (Group G1, Modules 20) / Mndal 1426906_at (Group G1, Modules 20) / Pml 1448757_at (Group G1, Modules 20) / Pml 1456103_at (Group G1, Modules 20) / Rnf213 1455500_at (Group G1, Modules 20) / Rsad2 1436058_at (Group G1, Modules 20) / Shisa5 1423986_a_at (Group G1, Modules 20) / Shisa5 1437503_a_at (Group G1, Modules 20) / Stat1 1450033_a_at (Group G1, Modules 20) / Stat1 1450034_at (Group G1, Modules 20) / Tdrd7 1426716_at (Group G1, Modules 20) / Tor1aip2 1418115_s_at (Group G1, Modules 20) / Tor1aip2 1418116_at (Group G1, Modules 20) / Tor1aip2 1435526_at (Group G1, Modules 20) / Trim12a 1437432_a_at (Group G1, Modules 20) / Uba7 1426970_a_at (Group G1, Modules 20): LV
How it was run: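 Per-sample fold-change values converted to gene-wise z-scores within each organ's data set, then triplicate z-scores summed per adjuvant. Genes with summed score >3 taken as preferentially expressed; gene groups defined by combined per-adjuvant z-score thresholds (z>1 to z>3) specific to each organ.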

K3: B class CpG ODN (ATCGACTCTCGAGCGTTCTC), TLR9 ligand (chemistry not given here)
z sum, 1444615_x_at Runx1t1 (ID, LN, Module#(LN) 1): −2.11
z sum, 1420894_at Tgfbr1 (ID, LN, Module#(LN) 3): −2.14
z sum, 1460069_at Smc6 (ID, LN, Module#(LN) 7): −3.53
z sum, 1440371_at --- (ID, LN, Module#(LN) 8): −1.24
z sum, 1456346_at --- (ID, LN, Module#(LN) 9): −2.13
z sum, 1425105_at Rbp3 (ID, LN, Module#(LN) 10): −2.11
z sum, 1455796_x_at Olfm1 (ID, LN, Module#(LN) 11): −1.44
z sum, 1443302_at --- (ID, LN, Module#(LN) 12): −2.78
z sum, 1442518_at C030044O21Rik (ID, LN, Module#(LN) 14): −1.58
z sum, 1419486_at Foxc1 (ID, LN, Module#(LN) 19): −0.76
z sum, 1441344_at Erlin1 (ID, LN, Module#(LN) 21): −2.63
z sum, 1423611_at Alpl (ID, LN, Module#(LN) 24): −1
z sum, 1448179_at Usmg5 (ID, LN, Module#(LN) 24): −2.02
z sum, 1458457_at --- (ID, LN, Module#(LN) 26): −0.33
z sum, 1450377_at Thbs1 (ID, LN, Module#(LN) 28): −2.87
z sum, 1443853_x_at Sfmbt1 (ID, LN, Module#(LN) 32): −2.59
z sum, 1443392_at Trpv1 (ID, LN, Module#(LN) 33): −1.04
z sum, 1440475_at AW011738 (ID, LN, Module#(LN) 36): −2.36
z sum, 1416380_at Mov10 (ID, LN, Module#(LN) 37): −2.43
z sum, 1421008_at Rsad2 (ID, LN, Module#(LN) 37): −1.42
z sum, 1421009_at Rsad2 (ID, LN, Module#(LN) 37): −0.76
z sum, 1424339_at Oasl1 (ID, LN, Module#(LN) 37): −0.5
z sum, 1426013_s_at Plekha4 (ID, LN, Module#(LN) 37): −1.53
z sum, 1436058_at Rsad2 (ID, LN, Module#(LN) 37): −0.71
z sum, 1436472_at Slfn9 (ID, LN, Module#(LN) 37): −2
z sum, 1447241_at --- (ID, LN, Module#(LN) 37): −2.6
z sum, 1416039_x_at Cyr61 (ID, LN, Module#(LN) 39): −1.58
z sum, 1418191_at Usp18 (ID, LN, Module#(LN) 40): −0.03
z sum, 1418293_at Ifit2 (ID, LN, Module#(LN) 40): −0.49
z sum, 1418580_at Rtp4 (ID, LN, Module#(LN) 40): −1
z sum, 1419603_at Ifi204 (ID, LN, Module#(LN) 40): −1.28
z sum, 1421911_at Stat2 (ID, LN, Module#(LN) 40): −0.43
z sum, 1422006_at Eif2ak2 (ID, LN, Module#(LN) 40): −1.95
z sum, 1422141_s_at Csprs///Gm15433///Gm2666///Gm7609///LOC100041903///LOC100503923 (ID, LN, Module#(LN) 40): −1.36
z sum, 1423555_a_at Ifi44 (ID, LN, Module#(LN) 40): −1.43
z sum, 1424444_a_at 1600014C10Rik (ID, LN, Module#(LN) 40): −0.85
z sum, 1424607_a_at Gm4354 (ID, LN, Module#(LN) 40): −0.89
z sum, 1424609_a_at Cwc22///Gm4354///Xdh (ID, LN, Module#(LN) 40): −2.76
z sum, 1431095_a_at Herc6 (ID, LN, Module#(LN) 40): −0.73
z sum, 1432417_a_at Tspan2 (ID, LN, Module#(LN) 40): −2.15
z sum, 1439886_at --- (ID, LN, Module#(LN) 40): −1.19
z sum, 1450403_at Stat2 (ID, LN, Module#(LN) 40): −1.07
z sum, 1451777_at Ddx60 (ID, LN, Module#(LN) 40): 0.163
z sum, 1452349_x_at Ifi205///Mnda (ID, LN, Module#(LN) 40): −1.48
z sum, 1453196_a_at Oasl2 (ID, LN, Module#(LN) 40): −1.27
z sum, 1453299_a_at Pnp///Pnp2 (ID, LN, Module#(LN) 40): −0.78
z sum, 1453757_at Herc6 (ID, LN, Module#(LN) 40): −0.2
z sum, 1456164_at AW011738 (ID, LN, Module#(LN) 40): −2.08
z sum, 1457035_at Al607873 (ID, LN, Module#(LN) 40): −0.26
Adar 1425405_a_at (Group G1, Modules 20) (ID, sample x1): −0.3
Adar 1434268_at (Group G1, Modules 20) (ID, sample x1): −0.6
Ddx58 1436562_at (Group G1, Modules 20) (ID, sample x1): −0.3
Ddx58 1456890_at (Group G1, Modules 20) (ID, sample x1): −0.4
Eif2ak2 1422005_at (Group G1, Modules 20) (ID, sample x1): −0.5
G3bp2 1421323_a_at (Group G1, Modules 20) (ID, sample x1): −0.4
Gm9706///Isg15 1431591_s_at (Group G1, Modules 20) (ID, sample x1): −0.5
H2-T10///H2-T22///H2-T9 1449875_s_at (Group G1, Modules 20) (ID, sample x1): −0.3
Ifih1 1426276_at (Group G1, Modules 20) (ID, sample x1): −0.4
Ifit1 1450783_at (Group G1, Modules 20) (ID, sample x1): −0.5
Ifit3 1449025_at (Group G1, Modules 20) (ID, sample x1): −0.5
Irf7 1417244_a_at (Group G1, Modules 20) (ID, sample x1): −0.4
Irgm1 1418825_at (Group G1, Modules 20) (ID, sample x1): −0.5
Mndal 1426906_at (Group G1, Modules 20) (ID, sample x1): −0.3
Pml 1448757_at (Group G1, Modules 20) (ID, sample x1): −0.4
Pml 1456103_at (Group G1, Modules 20) (ID, sample x1): −0.5
Rnf213 1455500_at (Group G1, Modules 20) (ID, sample x1): −0.5
Rsad2 1436058_at (Group G1, Modules 20) (ID, sample x1): −0.5
Shisa5 1423986_a_at (Group G1, Modules 20) (ID, sample x1): −0.5
Shisa5 1437503_a_at (Group G1, Modules 20) (ID, sample x1): −0.5
Stat1 1450033_a_at (Group G1, Modules 20) (ID, sample x1): −0.5
Stat1 1450034_at (Group G1, Modules 20) (ID, sample x1): −0.4
Tdrd7 1426716_at (Group G1, Modules 20) (ID, sample x1): −0.3
Tor1aip2 1418115_s_at (Group G1, Modules 20) (ID, sample x1): −0.3
Tor1aip2 1418116_at (Group G1, Modules 20) (ID, sample x1): −0.4
Tor1aip2 1435526_at (Group G1, Modules 20) (ID, sample x1): −0.4
Trim12a 1437432_a_at (Group G1, Modules 20) (ID, sample x1): −0.6
Uba7 1426970_a_at (Group G1, Modules 20) (ID, sample x1): −0.2
Adar 1425405_a_at (Group G1, Modules 20) (ID, sample x2): −0.7
Adar 1434268_at (Group G1, Modules 20) (ID, sample x2): −0.5
Ddx58 1436562_at (Group G1, Modules 20) (ID, sample x2): −0.4
Ddx58 1456890_at (Group G1, Modules 20) (ID, sample x2): −0.4
Eif2ak2 1422005_at (Group G1, Modules 20) (ID, sample x2): −0.5
G3bp2 1421323_a_at (Group G1, Modules 20) (ID, sample x2): −0.5
Gm9706///Isg15 1431591_s_at (Group G1, Modules 20) (ID, sample x2): −0.5
H2-T10///H2-T22///H2-T9 1449875_s_at (Group G1, Modules 20) (ID, sample x2): −0.5
Ifih1 1426276_at (Group G1, Modules 20) (ID, sample x2): −0.4
Ifit1 1450783_at (Group G1, Modules 20) (ID, sample x2): −0.5
Ifit3 1449025_at (Group G1, Modules 20) (ID, sample x2): −0.5
Irf7 1417244_a_at (Group G1, Modules 20) (ID, sample x2): −0.4
Irgm1 1418825_at (Group G1, Modules 20) (ID, sample x2): −0.6
Mndal 1426906_at (Group G1, Modules 20) (ID, sample x2): −0.3
Pml 1448757_at (Group G1, Modules 20) (ID, sample x2): −0.6
Pml 1456103_at (Group G1, Modules 20) (ID, sample x2): −0.6
Rnf213 1455500_at (Group G1, Modules 20) (ID, sample x2): −0.5
Rsad2 1436058_at (Group G1, Modules 20) (ID, sample x2): −0.5
Shisa5 1423986_a_at (Group G1, Modules 20) (ID, sample x2): −0.5
Shisa5 1437503_a_at (Group G1, Modules 20) (ID, sample x2): −0.3
Stat1 1450033_a_at (Group G1, Modules 20) (ID, sample x2): −0.5
Stat1 1450034_at (Group G1, Modules 20) (ID, sample x2): −0.5
Tdrd7 1426716_at (Group G1, Modules 20) (ID, sample x2): −0.6
Tor1aip2 1418115_s_at (Group G1, Modules 20) (ID, sample x2): −0.3
Tor1aip2 1418116_at (Group G1, Modules 20) (ID, sample x2): −0.5
Tor1aip2 1435526_at (Group G1, Modules 20) (ID, sample x2): −0.5
Trim12a 1437432_a_at (Group G1, Modules 20) (ID, sample x2): −0.5
Uba7 1426970_a_at (Group G1, Modules 20) (ID, sample x2): −0.3
Adar 1425405_a_at (Group G1, Modules 20) (IP, sample x1): −0.5
Adar 1434268_at (Group G1, Modules 20) (IP, sample x1): −0.6
Ddx58 1436562_at (Group G1, Modules 20) (IP, sample x1): −0.5
Ddx58 1456890_at (Group G1, Modules 20) (IP, sample x1): −0.4
Eif2ak2 1422005_at (Group G1, Modules 20) (IP, sample x1): −0.6
G3bp2 1421323_a_at (Group G1, Modules 20) (IP, sample x1): −0.6
